Measurements: publication PMC6480153, “Discovery of Novel Triazole-Containing Pyrazole Ester Derivatives as Potential Antibacterial Agents” (Molecules, 2019)
Converted amounts (≈) assume the structure as drawn. Like-named read-outs stand apart in the source and are kept apart here.

Assays:
[1] = test system: Listeria monocytogenes (ATCC-15313); assay: MIC by agar-dilution method against Listeria monocytogenes; format: cell-based; conditions: for MIC: read-out: MIC L.m
Description: (§1) In vitro antimicrobial activity of the prepared compounds against four bacteria was evaluated by the conventional agar-dilution method. Ciprofloxacin was selected as a reference standard.
(§2) The solid media Luria-Bertani (LB)-Broth-Agar-Medium (tryptone 10 g/L, yeast 5 g/L, NaCl 10 g/L, agar 15 g/L, and distilled water 1000 mL, adjusted to pH 7.4 was used for testing the antibacterial activity.
(§3) The in vitro antibacterial activity for synthesized compounds 4a–m were evaluated using the agar-dilution method. […] Drugs (10.0 mg) were dissolved in DMSO (1 mL) and the solution was diluted with water (9 mL). […] The bacterial inocula were prepared by suspending 24 h-old bacterial colonies from LB-Broth-Agar-Medium in 0.85% saline. The inocula were adjusted to 0.5 McFarland Standard ([…]). The suspensions were then diluted in 0.85% saline to give 10^7 CFU/mL. Petri dishes were spot-inoculated with 1 μL of each of the prepared bacterial suspensions (10^4 CFU/spot) and incubated at 37 °C for 24 h. […] A control test was also performed with test medium supplemented with DMSO at the same dilutions as used in the experiment in order to ensure that the solvent had no influence on bacterial growth.

[2] = test system: Salmonella gallinarum (ATCC-9184); assay: MIC by agar-dilution method against Salmonella gallinarum; format: cell-based; conditions: 24 h; for MIC: Salmonella enterica, read-out: MIC S.e
Description: as §1, §2, §3

[3] = test system: Escherichia coli (ATCC-25922); assay: MIC by agar-dilution method against Escherichia coli; format: cell-based; conditions: 24 h; for MIC E. c: 37 °C
Description: as §1, §2, §3

[4] = test system: Staphylococcus aureus (ATCC-12600); assay: MIC by agar-dilution method against Staphylococcus aureus; format: cell-based; conditions: for MIC: ATCC12600
Description: as §1, §2, §3

DNA gyrase = target: T1, DNA gyrase (Escherichia coli, UniProt P0AES4+P0AES6); assay: DNA gyrase (topoisomerase II) supercoiling inhibition, gel electrophoresis; format: biochemical; conditions: Topoisomerase II supercoiling activity; enzyme isolated from Escherichia coli
T1 construct: First, the E. coli suspension is extracted to obtain a crude enzyme solution; endogenous in cells
T1 sequence (P0AES4 whole entry, one chain of several): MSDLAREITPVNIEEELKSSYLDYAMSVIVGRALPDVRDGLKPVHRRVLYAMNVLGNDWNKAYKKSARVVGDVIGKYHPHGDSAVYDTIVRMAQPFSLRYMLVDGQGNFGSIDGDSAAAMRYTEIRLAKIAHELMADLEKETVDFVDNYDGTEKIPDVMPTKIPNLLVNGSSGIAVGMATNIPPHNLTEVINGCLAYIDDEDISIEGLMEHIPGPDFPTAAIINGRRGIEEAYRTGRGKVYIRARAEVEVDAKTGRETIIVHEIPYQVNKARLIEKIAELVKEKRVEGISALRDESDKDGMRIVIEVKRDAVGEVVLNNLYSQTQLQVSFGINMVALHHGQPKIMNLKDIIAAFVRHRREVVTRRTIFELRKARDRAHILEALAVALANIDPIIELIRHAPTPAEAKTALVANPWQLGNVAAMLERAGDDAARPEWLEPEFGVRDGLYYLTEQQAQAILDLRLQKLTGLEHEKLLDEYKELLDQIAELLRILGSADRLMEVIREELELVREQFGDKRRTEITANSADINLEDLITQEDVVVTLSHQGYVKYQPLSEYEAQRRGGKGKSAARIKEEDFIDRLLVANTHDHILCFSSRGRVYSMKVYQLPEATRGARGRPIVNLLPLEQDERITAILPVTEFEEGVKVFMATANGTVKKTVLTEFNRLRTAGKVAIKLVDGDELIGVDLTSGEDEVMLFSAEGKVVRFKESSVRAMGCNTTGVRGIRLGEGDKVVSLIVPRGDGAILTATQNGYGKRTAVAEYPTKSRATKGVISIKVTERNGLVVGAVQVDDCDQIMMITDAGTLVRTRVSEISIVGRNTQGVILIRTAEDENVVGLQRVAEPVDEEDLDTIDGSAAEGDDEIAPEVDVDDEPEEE
Description: (§4) In order to determine the relationship between compounds and antibacterial activity, the inhibitory activity of selected compounds (4d and 4k) against DNA gyrase and topoisomerase IV isolated from Escherichia coli was examined.
(§5) The in vitro antibacterial activity of the target compounds was carried out on by the methods of Sato et al. and Peng and Marians. First, the E. coli suspension is extracted to obtain a crude enzyme solution. After the purification step, the selected compounds are determined by gel electrophoresis to obtain data of different gradient concentrations, thereby calculating the IC50 values.

topoisomerase IV = target: T2, topoisomerase IV (Escherichia coli, UniProt P0AFI2+P20083); assay: Topoisomerase IV decatenation inhibition, gel electrophoresis; format: biochemical; conditions: Topoisomerase IV decatenation activity, enzyme isolated from Escherichia coli
T2 construct: First, the E. coli suspension is extracted to obtain a crude enzyme solution; endogenous in cells
T2 sequence (P20083 whole entry): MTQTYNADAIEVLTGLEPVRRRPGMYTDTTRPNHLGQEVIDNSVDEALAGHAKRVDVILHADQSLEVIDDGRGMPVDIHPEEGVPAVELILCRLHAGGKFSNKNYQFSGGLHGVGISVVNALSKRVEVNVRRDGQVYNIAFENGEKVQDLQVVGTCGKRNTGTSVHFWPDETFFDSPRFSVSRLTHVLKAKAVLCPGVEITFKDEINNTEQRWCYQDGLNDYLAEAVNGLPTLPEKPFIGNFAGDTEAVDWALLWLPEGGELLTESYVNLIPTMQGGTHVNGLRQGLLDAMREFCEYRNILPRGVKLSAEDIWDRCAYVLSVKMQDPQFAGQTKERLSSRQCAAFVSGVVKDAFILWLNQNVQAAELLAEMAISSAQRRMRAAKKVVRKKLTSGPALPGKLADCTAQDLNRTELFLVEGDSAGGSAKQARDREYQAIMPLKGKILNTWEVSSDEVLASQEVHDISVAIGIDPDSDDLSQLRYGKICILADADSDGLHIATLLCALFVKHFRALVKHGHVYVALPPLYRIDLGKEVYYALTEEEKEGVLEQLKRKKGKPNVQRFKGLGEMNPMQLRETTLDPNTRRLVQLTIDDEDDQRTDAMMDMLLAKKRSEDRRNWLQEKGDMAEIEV
T2 sequence (P0AFI2 whole entry): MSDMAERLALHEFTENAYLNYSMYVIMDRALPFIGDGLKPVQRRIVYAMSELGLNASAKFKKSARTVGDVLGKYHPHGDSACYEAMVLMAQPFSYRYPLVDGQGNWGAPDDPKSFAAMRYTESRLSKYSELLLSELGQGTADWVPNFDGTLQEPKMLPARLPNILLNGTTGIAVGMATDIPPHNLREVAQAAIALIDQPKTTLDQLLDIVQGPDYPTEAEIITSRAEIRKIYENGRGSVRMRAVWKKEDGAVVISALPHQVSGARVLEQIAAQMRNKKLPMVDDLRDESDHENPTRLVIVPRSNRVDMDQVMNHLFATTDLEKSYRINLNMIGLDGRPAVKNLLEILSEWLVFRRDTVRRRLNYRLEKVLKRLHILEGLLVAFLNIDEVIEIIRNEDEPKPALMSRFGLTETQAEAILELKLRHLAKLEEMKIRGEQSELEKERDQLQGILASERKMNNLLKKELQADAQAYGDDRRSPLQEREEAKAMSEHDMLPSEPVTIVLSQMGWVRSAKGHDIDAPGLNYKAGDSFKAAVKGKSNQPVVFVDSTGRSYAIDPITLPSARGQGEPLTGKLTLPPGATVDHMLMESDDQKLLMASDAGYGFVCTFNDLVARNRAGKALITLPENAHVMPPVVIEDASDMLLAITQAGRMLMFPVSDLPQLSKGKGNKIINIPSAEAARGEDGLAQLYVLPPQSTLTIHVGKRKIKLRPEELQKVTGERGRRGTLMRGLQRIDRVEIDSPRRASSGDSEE
Description: as §4, §5

[5] = Listeria monocytogenes ATCC-15313, agar dilution, 37 °C, 24 h
[6] = Staphylococcus aureus ATCC-12600, agar dilution, 37 °C, 24 h
[7] = Salmonella gallinarum ATCC-9184, agar dilution, 37 °C

| Structure (SMILES) | MIC E. c [3] | MIC L.m [1, 5] | MIC S.a [4, 6] | MIC S.e [2, 7] | also measured |
| --- | --- | --- | --- | --- | --- |
| O=C(O)c1cn(C2CC2)c2cc(N3CCNCC3)c(F)cc2c1=O [CIP, Ciprofloxacin, reference compound] |  |  |  |  | MIC ([1]; Listeria monocytogenes, ATCC15313, 24 h): 1 µg/mL (≈ 3.02 µM); MIC [2]: 0.25 µg/mL (≈ 0.754 µM) |
| Cc1nn(-c2ccccc2)c(Cl)c1C(=O)Oc1ncn(-c2ccccc2)n1 [Compound 4a, 1-phenyl-1H-1,2,4-triazol-3-yl5-chloro-3-methyl-1-phenyl-1H-pyrazole-4-carboxylate] | 8 µg/mL (≈ 21.1 µM) | 16 µg/mL (≈ 42.1 µM) | 16 µg/mL (≈ 42.1 µM) | 16 µg/mL (≈ 42.1 µM) |  |
| Cc1nn(-c2ccc(F)cc2)c(Cl)c1C(=O)Oc1ncn(-c2ccccc2)n1 [Compound 4b, 1-phenyl-1H-1,2,4-triazol-3-yl5-chloro-1-(4-fluorophenyl)-3-methyl-1H-pyrazole-4-carboxylate] | 64 µg/mL (≈ 161 µM) | >128 µg/mL | >128 µg/mL | 64 µg/mL (≈ 161 µM) |  |
| Cc1nn(-c2ccc(Cl)cc2)c(Cl)c1C(=O)Oc1ncn(-c2ccccc2)n1 [Compound 4c, 1-phenyl-1H-1,2,4-triazol-3-yl5-chloro-1-(4-chlorophenyl)-3-methyl-1H-pyrazole-4-carboxylate] | 64 µg/mL (≈ 154 µM) | >128 µg/mL | 64 µg/mL (≈ 154 µM) | 64 µg/mL (≈ 154 µM) |  |
| Cc1ccc(-n2nc(C)c(C(=O)Oc3ncn(-c4ccccc4)n3)c2Cl)cc1 [Compound 4d, 1-phenyl-1H-1,2,4-triazol-3-yl5-chloro-3-methyl-1-(p-tolyl)-1H-pyrazole-4-carboxylate] |  |  |  |  | IC50 (DNA gyrase): 34.3 µM; MIC ([3]; ATCC25922, 37 °C): 4 µg/mL (≈ 10.2 µM); melting point: 154 to 156 °C; IC50 (topoisomerase IV; read-out: IC50 Topo IV (converted)): 61.4 µM; MIC ([1]; ATCC15313, Listeria monocytogenes ATCC-15313, agar dilution, 37 °C, 24 h): 2 µg/mL (≈ 5.08 µM); MIC ([4]; Staphylococcus aureus ATCC-12600, agar dilution, 37 °C, 24 h, read-out: MIC S.a): 4 µg/mL (≈ 10.2 µM); MIC ([4]; Staphylococcus aureus, range stated in text for three compounds, read-out: MIC against Staphylococcus aureus): 4 to 8 µg/mL (≈ 10.2 to 20.3 µM); MIC [2, 7]: 0.5 µg/mL (≈ 1.27 µM) |
| Cc1nn(-c2ccccc2)c(Cl)c1C(=O)Oc1ncn(-c2ccc(F)cc2)n1 [Compound 4e, 1-(4-fluorophenyl)-1H-1,2,4-triazol-3-yl5-chloro-3-methyl-1-phenyl-1H-pyrazole-4-carboxylate] | 32 µg/mL (≈ 80.4 µM) | 32 µg/mL (≈ 80.4 µM) | 64 µg/mL (≈ 161 µM) | 32 µg/mL (≈ 80.4 µM) |  |
| Cc1nn(-c2ccc(F)cc2)c(Cl)c1C(=O)Oc1ncn(-c2ccc(F)cc2)n1 [Compound 4f, 1-(4-fluorophenyl)-1H-1,2,4-triazol-3-yl5-chloro-1-(4-fluorophenyl)-3-methyl-1H-pyrazole-4-carboxylate] | >128 µg/mL | >128 µg/mL | >128 µg/mL | >128 µg/mL |  |
| Cc1nn(-c2ccc(Cl)cc2)c(Cl)c1C(=O)Oc1ncn(-c2ccc(F)cc2)n1 [Compound 4g, 1-(4-fluorophenyl)-1H-1,2,4-triazol-3-yl5-chloro-1-(4-chlorophenyl)-3-methyl-1H-pyrazole-4-carboxylate] | 64 µg/mL (≈ 148 µM) | 64 µg/mL (≈ 148 µM) | 64 µg/mL (≈ 148 µM) | 64 µg/mL (≈ 148 µM) |  |
| Cc1ccc(-n2nc(C)c(C(=O)Oc3ncn(-c4ccc(F)cc4)n3)c2Cl)cc1 [Compound 4h, 1-(4-fluorophenyl)-1H-1,2,4-triazol-3-yl5-chloro-3-methyl-1-(p-tolyl)-1H-pyrazole-4-carboxylate] | 32 µg/mL (≈ 77.7 µM) | 16 µg/mL (≈ 38.9 µM) | 8 µg/mL (≈ 19.4 µM) | 32 µg/mL (≈ 77.7 µM) |  |
| Cc1nn(-c2ccc(F)cc2)c(Cl)c1C(=O)Oc1ncn(-c2ccc(Cl)cc2)n1 [Compound 4i, 1-(4-chlorophenyl)-1H-1,2,4-triazol-3-yl5-chloro-1-(4-fluorophenyl)-3-methyl-1H-pyrazole-4-carboxylate] | >128 µg/mL | 64 µg/mL (≈ 148 µM) | >128 µg/mL | 64 µg/mL (≈ 148 µM) |  |
| Cc1nn(-c2ccc(Cl)cc2)c(Cl)c1C(=O)Oc1ncn(-c2ccc(Cl)cc2)n1 [Compound 4j, 1-(4-chlorophenyl)-1H-1,2,4-triazol-3-yl5-chloro-1-(4-chlorophenyl)-3-methyl-1H-pyrazole-4-carboxylate] | 64 µg/mL (≈ 143 µM) | 64 µg/mL (≈ 143 µM) | 64 µg/mL (≈ 143 µM) | 32 µg/mL (≈ 71.3 µM) |  |
| Cc1ccc(-n2cnc(OC(=O)c3c(C)nn(-c4ccccc4)c3Cl)n2)cc1 [Compound 4k, 1-(p-tolyl)-1H-1,2,4-triazol-3-yl-5-chloro-3-methyl-1-phenyl-1H-pyrazole-4-carboxylate] | 4 µg/mL (≈ 10.2 µM) | 8 µg/mL (≈ 20.3 µM) | 4 µg/mL (≈ 10.2 µM) | 4 µg/mL (≈ 10.2 µM) | IC50 Gyrase (DNA gyrase): 25.7 µg/mL (≈ 65.3 µM); IC50 Topo IV (topoisomerase IV): 33.1 µg/mL (≈ 84 µM) |
| Cc1ccc(-n2cnc(OC(=O)c3c(C)nn(-c4ccc(F)cc4)c3Cl)n2)cc1 [Compound 4l, 1-(p-tolyl)-1H-1,2,4-triazol-3-yl5-chloro-1-(4-fluorophenyl)-3-methyl-1H-pyrazole-4-carboxylate] | 32 µg/mL (≈ 77.7 µM) | 64 µg/mL (≈ 155 µM) | 32 µg/mL (≈ 77.7 µM) | 32 µg/mL (≈ 77.7 µM) |  |
